For three molecules, IC50 results are on record in US6302837A, “Benzothiophene, benzofuran and indole compounds” (Adir et Compagnie, priority 1999, dated 2001).

Molecules are shown by their SMILES.

Chain of recombinant active human PAI-1 (P05121 24-402): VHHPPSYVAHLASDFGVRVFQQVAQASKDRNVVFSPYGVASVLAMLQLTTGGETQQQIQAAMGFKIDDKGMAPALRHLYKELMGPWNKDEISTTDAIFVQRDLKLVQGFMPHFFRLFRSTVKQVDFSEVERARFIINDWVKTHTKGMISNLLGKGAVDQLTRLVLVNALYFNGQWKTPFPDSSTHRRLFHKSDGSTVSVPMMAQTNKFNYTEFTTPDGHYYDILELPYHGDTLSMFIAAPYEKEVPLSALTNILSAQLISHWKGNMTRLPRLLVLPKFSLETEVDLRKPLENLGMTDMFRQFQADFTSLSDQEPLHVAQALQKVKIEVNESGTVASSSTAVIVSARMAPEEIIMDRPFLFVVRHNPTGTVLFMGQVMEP

The target of this experiment is recombinant active human PAI-1 (Homo sapiens, UniProt P05121). The experiment can be described thus: Inhibition of the activity of PAI-1 in vitro (fibrin clot breakdown, turbidity). The conditions noted are these: absorbance two hours after start of fibrin formation, 50 mM phosphate buffer pH 7.4, tissue plasminogen activator, fibrinogen, thrombin, read-out: IC50 (concentration of product that inhibits PAI-1 activity by 50%). The format is biochemical. As to the method:
Inhibition of the activity of PAI-1 was effected in vitro in microplate wells in which the formation and then breakdown of a fibrin clot is monitored continuously by measurement of its turbidity using a spectrophotometer. To do so, using, as diluent, a 50 mM phosphate buffer pH 7.4 containing 0.05% of bovine serum albumin, […] of the inhibitor is placed in the presence of 50 μl of a 2 nM solution of recombinant active human PAI-1 for 5 minutes at ambient temperature. 50 μl of a 0.42 nM solution of tissue plasminogen activator, 50 μl of an 800 nM solution of human plasminogen and 50 μl of a 2 g/liter solution of fibrinogen are then added and the fibrin formation is triggered by the addition of 50 μl of 14 nM purified human thrombin. In the absence of the product, inhibition of breakdown two hours after the start of fibrin formation is measured by the absorbance of the clot and represents 100% of the PAI-1 activity. In the absence of the product and of PAI-1, breakdown is measured by the absorbance of the broken-down clot and represents 0% of the PAI-1 activity. The concentration of product that inhibits PAI-1 activity by 50% is determined by measuring the absorbance of the clot two hours after fibrin formation in the presence of PAI-1 and of an increasing concentration of the product.
In the case of `O=C(O)/C(=C/c1sc2cc(OCc3ccc(-c4ccccc4)cc3)c(OCc3ccc(-c4ccccc4)cc3)cc2c1Oc1ccc(Cl)cc1)c1ccncc1` [Example 2, (E)-3-[5,6-Bis-([1,1'-biphenyl]-4-ylmethoxy)-3-(4-chlorophenoxy)-benzo[b]thiophen-2-yl]-2-(4-pyridyl)2-propenoic acid], the IC50 is 130 nM. With `O=C(O)/C(=C/c1sc2cc(OCc3ccc(-c4ccccc4)cc3)c(OCc3ccc(-c4ccccc4)cc3)cc2c1Oc1cccnc1)c1ccncc1` [Example 10], the IC50 stood at 530 nM.

With `O=C(O)/C(=C/c1sc2cc(OCc3ccc(-c4ccccc4)cc3)c(OCc3ccc(-c4ccccc4)cc3)cc2c1Oc1ccccc1)c1ccncc1` [Example 26, (E)-3-[5,6-Bis([1,1'-biphenyl]-4-ylmethoxy)-3-phenoxy-benzo[b]thiophen-2-yl]-2-(4-pyridyl)-2-propenoic acid], the IC50 is 60 nM.
